Experimental data as given in patent US9695155B2, “Herbicidal substituted pyrimidinyloxy benzene compounds” (E. I. DU PONT DE NEMOURS AND COMPANY, priority 2013, dated 2017).

Experiments:
[1] = test system: soybean; experiment: Test E preemergence; format: in vivo, Glycine max; conditions: for Soybean plant response rating: scale 0 to 100 (0 no effect, 100 complete control); for Plant response rating, Soybean: 125 g ai/ha, scale 0 to 100, 0 no effect, 100 complete control
Summary of the method: (§1)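 Compound in a non-phytotoxic solvent mixture with surfactant was applied preemergence to seeds in silt loam soil, or postemergence to plants 2 to 18 cm tall grown in peat-based potting medium. Plants were kept in a greenhouse for 14 to 21 days, then rated visually against untreated controls on a 0 (no effect) to 100 (complete control) scale.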

[2] = test system: fall panicum; experiment: Test E preemergence; format: in vivo, Panicum dichotomiflorum; conditions: for Panicum, Fall plant response rating: scale 0 to 100 (0 no effect, 100 complete control); for Plant response rating, Panicum, Fall: 125 g ai/ha, scale 0 to 100, 0 no effect, 100 complete control
Summary of the method: as §1

[3] = test system: dayflower; experiment: Test E preemergence; format: in vivo, Commelina virginica; conditions: for Dayflower, VA plant response rating: scale 0 to 100 (0 no effect, 100 complete control); for Plant response rating, Dayflower, VA: 125 g ai/ha, scale 0 to 100, 0 no effect, 100 complete control
Summary of the method: as §1

[4] = test system: green foxtail; experiment: Test E preemergence; format: in vivo, Setaria viridis; conditions: for Foxtail, Green plant response rating: scale 0 to 100 (0 no effect, 100 complete control); for Plant response rating, Foxtail, Green: 125 g ai/ha, scale 0 to 100, 0 no effect, 100 complete control
Summary of the method: as §1

[5] = test system: Italian ryegrass; experiment: Test A postemergence; format: in vivo, Lolium multiflorum; conditions: 0 to 100 scale where 0 is no effect and 100 is complete control
Summary of the method: (§2)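 Greenhouse pot test, loam/sand soil. Formulation: non-phytotoxic solvent mix plus surfactant. Pre: directed spray onto soil after sowing. Post: plants at 1–2 leaf, 2–10 cm. Rated visually vs untreated controls at ~10 d, 0 (no effect) to 100 (complete control).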

[6] = test system: ragweed; experiment: Test A preemergence; format: in vivo, Ambrosia elatior; conditions: for Ragweed plant response rating: 500 g ai/ha, 0 to 100 scale, 0 no effect, 100 complete control, approx. 10 days
Summary of the method: as §2

[7] = test system: Italian ryegrass; experiment: Test A preemergence; format: in vivo, Lolium multiflorum; conditions: for Plant response rating, Ryegrass, Italian: 125 g ai/ha, 0 to 100 scale where 0 is no effect and 100 is complete control; for Ryegrass, Italian plant response rating: 500 g ai/ha, 0 to 100 scale, 0 no effect, 100 complete control, approx. 10 days
Summary of the method: as §2

[8] = test system: ragweed; experiment: Test E preemergence; format: in vivo, Ambrosia elatior; conditions: for Ragweed plant response rating: scale 0 to 100 (0 no effect, 100 complete control); for Plant response rating, Ragweed: 125 g ai/ha, scale 0 to 100, 0 no effect, 100 complete control
Summary of the method: as §1

[9] = test system: sandbur; experiment: Test E preemergence; format: in vivo, Cenchrus echinatus; conditions: for Sandbur plant response rating: scale 0 to 100 (0 no effect, 100 complete control); for Plant response rating, Sandbur: 125 g ai/ha, scale 0 to 100, 0 no effect, 100 complete control
Summary of the method: as §1

[10] = test system: yellow nutsedge; experiment: Test E preemergence; format: in vivo, Cyperus esculentus; conditions: for Nutsedge, Yellow plant response rating: scale 0 to 100 (0 no effect, 100 complete control); for Plant response rating, Nutsedge, Yellow: 125 g ai/ha, scale 0 to 100, 0 no effect, 100 complete control
Summary of the method: as §1

[11] = test system: blackgrass; experiment: Test A postemergence; format: in vivo, Alopecurus myosuroides; conditions: 0 to 100 scale where 0 is no effect and 100 is complete control
Summary of the method: as §2

[12] = test system: palmer pigweed; experiment: Test E preemergence; format: in vivo, Amaranthus palmeri; conditions: for Pigweed, Palmer plant response rating: scale 0 to 100 (0 no effect, 100 complete control); for Plant response rating, Pigweed, Palmer: 125 g ai/ha, scale 0 to 100, 0 no effect, 100 complete control
Summary of the method: as §1

[13] = test system: wild poinsettia; experiment: Test E preemergence; format: in vivo, Euphorbia heterophylla; conditions: for Poinsettia, Wild plant response rating: scale 0 to 100 (0 no effect, 100 complete control); for Plant response rating, Poinsettia, Wild: 125 g ai/ha, scale 0 to 100, 0 no effect, 100 complete control
Summary of the method: as §1

N#Cc1cccc(Oc2ncc(F)cn2)c1-n1cc(I)cn1 [Compound 86]
Soybean plant response rating ([1]; 16 g ai/ha): 0 | Soybean plant response rating ([1]; 31 g ai/ha): 0 | Soybean plant response rating ([1]; 62 g ai/ha): 35 | Plant response rating, Soybean [1]: 60 | Panicum, Fall plant response rating ([2]; 16 g ai/ha): 0 | Panicum, Fall plant response rating ([2]; 31 g ai/ha): 35 | Panicum, Fall plant response rating ([2]; 62 g ai/ha): 90 | Plant response rating, Panicum, Fall [2]: 100 | Dayflower, VA plant response rating ([3]; 16 g ai/ha): 0 | Dayflower, VA plant response rating ([3]; 31 g ai/ha): 0 | Dayflower, VA plant response rating ([3]; 62 g ai/ha): 30 | Plant response rating, Dayflower, VA [3]: 65 | Foxtail, Green plant response rating ([4]; 16 g ai/ha): 0 | Foxtail, Green plant response rating ([4]; 31 g ai/ha): 0 | Foxtail, Green plant response rating ([4]; 62 g ai/ha): 15 | Plant response rating, Foxtail, Green [4]: 75 | Plant response rating, Ryegrass, Italian ([5]; 125 g ai/ha): 80 | Plant response rating, Ryegrass, Italian ([5]; 500 g ai/ha): 100 | Plant response rating, Ragweed ([6]; 125 g ai/ha, 0 to 100 scale where 0 is no effect and 100 is complete control): 90 | Ragweed plant response rating [6]: 100 | Plant response rating, Ryegrass, Italian [7]: 10 | Ryegrass, Italian plant response rating [7]: 60 | Ragweed plant response rating ([8]; 16 g ai/ha): 0 | Ragweed plant response rating ([8]; 31 g ai/ha): 0 | Ragweed plant response rating ([8]; 62 g ai/ha): 5 | Plant response rating, Ragweed [8]: 20 | Sandbur plant response rating ([9]; 16 g ai/ha): 0 | Sandbur plant response rating ([9]; 31 g ai/ha): 10 | Sandbur plant response rating ([9]; 62 g ai/ha): 10 | Plant response rating, Sandbur [9]: 10 | Nutsedge, Yellow plant response rating ([10]; 16 g ai/ha): 0 | Nutsedge, Yellow plant response rating ([10]; 31 g ai/ha): 0 | Nutsedge, Yellow plant response rating ([10]; 62 g ai/ha): 0 | Plant response rating, Nutsedge, Yellow [10]: 20 | Plant response rating, Blackgrass ([11]; 125 g ai/ha): 90 | Plant response rating, Blackgrass ([11]; 500 g ai/ha): 100 | Pigweed, Palmer plant response rating ([12]; 31 g ai/ha): 0 | Pigweed, Palmer plant response rating ([12]; 62 g ai/ha): 100 | Plant response rating, Pigweed, Palmer [12]: 100 | Poinsettia, Wild plant response rating ([13]; 16 g ai/ha): 0 | Poinsettia, Wild plant response rating ([13]; 31 g ai/ha): 10 | Poinsettia, Wild plant response rating ([13]; 62 g ai/ha): 20 | Plant response rating, Poinsettia, Wild [13]: 65

N#Cc1cccc(Oc2ncc(Br)cn2)c1-n1cc(I)cn1 [Compound 88]
Soybean plant response rating ([1]; 16 g ai/ha): 35 | Soybean plant response rating ([1]; 31 g ai/ha): 0 | Soybean plant response rating ([1]; 62 g ai/ha): 20 | Plant response rating, Soybean [1]: 20 | Panicum, Fall plant response rating ([2]; 16 g ai/ha): 0 | Panicum, Fall plant response rating ([2]; 31 g ai/ha): 0 | Panicum, Fall plant response rating ([2]; 62 g ai/ha): 0 | Plant response rating, Panicum, Fall [2]: 10 | Dayflower, VA plant response rating ([3]; 16 g ai/ha): 0 | Dayflower, VA plant response rating ([3]; 31 g ai/ha): 0 | Dayflower, VA plant response rating ([3]; 62 g ai/ha): 0 | Plant response rating, Dayflower, VA [3]: 60 | Foxtail, Green plant response rating ([4]; 16 g ai/ha): 0 | Foxtail, Green plant response rating ([4]; 31 g ai/ha): 0 | Foxtail, Green plant response rating ([4]; 62 g ai/ha): 0 | Plant response rating, Foxtail, Green [4]: 35 | Plant response rating, Ryegrass, Italian ([5]; 125 g ai/ha): 50 | Plant response rating, Ryegrass, Italian ([5]; 500 g ai/ha): 90 | Ragweed plant response rating [6]: 60 | Plant response rating, Ryegrass, Italian [7]: 20 | Ryegrass, Italian plant response rating [7]: 30 | Ragweed plant response rating ([8]; 16 g ai/ha): 0 | Ragweed plant response rating ([8]; 31 g ai/ha): 0 | Ragweed plant response rating ([8]; 62 g ai/ha): 0 | Plant response rating, Ragweed [8]: 65 | Sandbur plant response rating ([9]; 16 g ai/ha): 0 | Sandbur plant response rating ([9]; 31 g ai/ha): 0 | Sandbur plant response rating ([9]; 62 g ai/ha): 0 | Plant response rating, Sandbur [9]: 10 | Nutsedge, Yellow plant response rating ([10]; 16 g ai/ha): 0 | Nutsedge, Yellow plant response rating ([10]; 31 g ai/ha): 0 | Nutsedge, Yellow plant response rating ([10]; 62 g ai/ha): 0 | Plant response rating, Nutsedge, Yellow [10]: 0 | Plant response rating, Blackgrass ([11]; 125 g ai/ha): 70 | Plant response rating, Blackgrass ([11]; 500 g ai/ha): 100 | Pigweed, Palmer plant response rating ([12]; 16 g ai/ha): 0 | Pigweed, Palmer plant response rating ([12]; 31 g ai/ha): 0 | Pigweed, Palmer plant response rating ([12]; 62 g ai/ha): 0 | Plant response rating, Pigweed, Palmer [12]: 75 | Poinsettia, Wild plant response rating ([13]; 16 g ai/ha): 0 | Poinsettia, Wild plant response rating ([13]; 31 g ai/ha): 0 | Poinsettia, Wild plant response rating ([13]; 62 g ai/ha): 0 | Plant response rating, Poinsettia, Wild [13]: 0
